Data reported in patent EP4670717A1, “PYRROLIDINE-FUSED MYRTANOL DERIVATIVES AS INHIBITORS AND/OR DEGRADERS OF IDO1 UND USE THEREOF” (Max-Planck-Gesellschaft zur Förderung der Wissenschaften …, priority 2024, dated 2025).
pIC50: −log10 of the molar value.

Target: T1, IDO1 (Homo sapiens, UniProt P14902)
T1 construct: BxPC3 cells were seeded in phenol red-free RPMI 1640 medium; endogenous in cells; host or cells: BxPC3 cells stimulated with IFN-γ (50 ng/mL)
Assay: Kyn assay in BxPC-3 cells (Kyn levels after IFN-γ and Trp);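 note: kyn levels expressed relative to DMSO-treated control cells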
Format: cell-based
Details: BxPC-3 cells incubated with IFN-γ, Trp and the compounds for 48 h; read-out: Kyn assay IC50 ± SD
Description: BxPC3 cells were seeded in phenol red-free RPMI 1640 medium in 1536-well or 384-well plates (Greiner #782086, Corning #3770) 24 h prior to the addition of compounds, IFN-γ (50 ng/mL, PeproTech) and L-Trp (380 µM, Sigmal-Aldrich). After 48 h of incubation, first cell viability was accessed by the addition of Hoechst-33342. Afterwards, trichloroacetic acid (TCA, Sigma-Aldrich) was added to a final concentration of 7 % and incubated for 10 min prior to a centrifugation step of 10 min at 1620 × g. Kyn levels were determined by means of the Kyn sensor^7 at a final concentration of 17.5 µM in sensor buffer (50 mM H3PO4 and 120 mM NaCl (pH=1)). Fluorescence intensity (excitation: 535 nm, emission: 595 nm) was measured using a Spectramax Paradigm reader (Molecular Devices). Data were normalized to the values for cells that were treated with DMSO.
For the manual assay, BxPC3 or SKOV3 cells were seeded in clear 96-well or 384-well plates, respectively, 24 h prior to compound treatment and IFN-γ (50 or 5 ng/mL, respectively) and L-Trp (380 µM) addition as described before.^7 48 h after treatment, TCA was added and Kyn levels were detected by means of 2 % w/v of p-DMAB (Ehrlich reagent) in acetic acid as described by Braun et al^29. The absorbance of the Ehrlich reagent was detected at 492 nm and at 650 nm as background control was measured on Spark® multimode microplate plate reader (Tecan, Austria). Kyn levels were determined by subtracting the absorbance value at 650 nm and presented relative to the DMSO control. Dose-response curves and IC50 values were generated and fitted with GraphPad Prism 6.0 (GraphPad software, USA) using four-parameter variable slope non-linear regression curve fit.
Cells were incubated with IFN-γ, Trp and the compounds for 48 h prior to detection of Kyn levels.

T1 sequence (P14902 whole entry): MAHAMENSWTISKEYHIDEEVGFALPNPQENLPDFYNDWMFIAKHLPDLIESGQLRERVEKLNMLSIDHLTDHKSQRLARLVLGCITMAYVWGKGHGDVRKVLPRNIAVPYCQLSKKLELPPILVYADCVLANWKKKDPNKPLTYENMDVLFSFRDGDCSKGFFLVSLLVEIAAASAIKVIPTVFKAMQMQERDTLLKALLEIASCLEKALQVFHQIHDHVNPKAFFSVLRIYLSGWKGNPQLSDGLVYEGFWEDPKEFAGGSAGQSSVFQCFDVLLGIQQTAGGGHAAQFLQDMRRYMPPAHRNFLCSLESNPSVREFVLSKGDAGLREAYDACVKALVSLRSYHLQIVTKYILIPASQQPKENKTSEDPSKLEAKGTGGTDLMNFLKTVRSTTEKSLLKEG

First: Cc1ccc(NC(=O)OC[C@]23CN(S(=O)(=O)C4CCCCC4)C[C@H]2C[C@H]2C[C@@H]3C2(C)C)cc1 [compound 31, ((3aS,4R,6R,7aS)-2-(cyclohexylsulfonyl)-5,5-dimethyloctahydro-3aH-4,6-methanoisoindol-3a-yl)methyl p-tolylcarbamate]
Second: CC1(C)[C@H]2C[C@@H]3CN(S(=O)(=O)c4ccc(C5CCCCC5)cc4)C[C@]3(COC(=O)Nc3ccc(I)cc3)[C@@H]1C2 [compound 45, ((3aS,4R,6R,7aS)-2-((4-cyclohexylphenyl)sulfonyl)-5,5-dimethyloctahydro-3aH-4,6-methanoisoindol-3a-yl)methyl (4-iodophenyl)carbamate]
The pIC50 of the first is lower: 5.00 to 5.30 for the first, 5.30 to 6.00 for the second. The second is the more potent here.

`COC(=O)CC(C)(C)c1ccc(S(=O)(=O)N2C[C@H]3C[C@H]4C[C@H](C4(C)C)[C@@]3(COC(=O)Nc3ccc(I)cc3)C2)cc1` [compound 62, Methyl 3-(4-(((3aS,4R,6R,7aS)-3a-((((4-iodophenyl)carbamoyl)oxy)methyl)-5,5-dimethyloctahydro-2H-4,6-methanoisoindol-2-yl)sulfonyl)phenyl)-3-methylbutanoate] and `CCC(C)(C)c1ccc(S(=O)(=O)N2C[C@H]3C[C@H]4C[C@H](C4(C)C)[C@@]3(COC(=O)Nc3ccc(I)cc3)C2)cc1` [compound 48, ((3aS,4R,6R,7aS)-5,5-dimethyl-2-((4-(tert-pentyl)phenyl)sulfonyl)octahydro-3aH-4,6-methanoisoindol-3a-yl)methyl (4-iodophenyl)carbamate] cannot be ordered by pIC50: over 6.70 for the first, over 6.70 for the second.

First: CC(C)(C(=O)N1CCOCC1)c1ccc(S(=O)(=O)N2C[C@H]3C[C@H]4C[C@H](C4(C)C)[C@@]3(COC(=O)Nc3ccc(I)cc3)C2)cc1 [compound 59, ((3aS,4R,6R,7aS)-5,5-dimethyl-2-((4-(2-methyl-1-morpholino-1-oxopropan-2-yl)phenyl)sulfonyl)octahydro-3aH-4,6-methanoisoindol-3a-yl)methyl (4-iodophenyl)carbamate]
Second: CN(C)C(=O)C(C)(C)c1ccc(S(=O)(=O)N2C[C@H]3C[C@H]4C[C@H](C4(C)C)[C@@]3(COC(=O)Nc3ccc(I)cc3)C2)cc1 [compound 60, ((3aS,4R,6R,7aS)-2-((4-(1-(dimethylamino)-2-methyl-1-oxopropan-2-yl)phenyl)sulfonyl)-5,5-dimethyloctahydro-3aH-4,6-methanoisoindol-3a-yl)methyl (4-iodophenyl)carbamate]
The pIC50 of the first is lower: 5.00 to 5.30 for the first, 6.00 to 6.70 for the second.

`CC(C)(C)Cc1ccc(S(=O)(=O)N2C[C@H]3C[C@H]4C[C@H](C4(C)C)[C@@]3(COC(=O)Nc3ccc(I)cc3)C2)cc1` [compound 47, ((3aS,4R,6R,7aS)-5,5-dimethyl-2-((4-neopentylphenyl)sulfonyl)octahydro-3aH-4,6-methanoisoindol-3a-yl)methyl (4-iodophenyl)carbamate] and `Cc1ccc(S(=O)(=O)N2C[C@H]3C[C@H]4C[C@H](C4(C)C)[C@@]3(COC(=O)Nc3ccc(I)cc3)C2)cc1` [compound 41, ((3aS,4R,6R,7aS)-5,5-dimethyl-2-tosyloctahydro-3aH-4,6-methanoisoindol-3a-yl)methyl (4-iodophenyl)carbamate] fall in the same range of pIC50: 6.00 to 6.70 for the first, 6.00 to 6.70 for the second.

First: CC1(C)[C@H]2C[C@@H]3CN(S(=O)(=O)c4ccc(-c5ccccc5)cc4)C[C@]3(COC(=O)Nc3ccc(I)cc3)[C@@H]1C2 [compound 44, ((3aS,4R,6R,7aS)-2-([1,1'-biphenyl]-4-ylsulfonyl)-5,5-dimethyloctahydro-3aH-4,6-methanoisoindol-3a-yl)methyl (4-iodophenyl)carbamate]
Second: CC1(C)[C@H]2C[C@@H]3CN(S(=O)(=O)c4ccccc4)C[C@]3(COC(=O)Nc3ccc(I)cc3)[C@@H]1C2 [compound 37, ((3aS,4R,6R,7aS)-5,5-dimethyl-2-(phenylsulfonyl)octahydro-3aH-4,6-methanoisoindol-3a-yl)methyl (4-iodophenyl)carbamate]
The pIC50 of the first is higher: 6.00 to 6.70 for the first, 5.30 to 6.00 for the second.

`CC(C)(C)c1ccc(S(=O)(=O)N2C[C@H]3C[C@H]4C[C@H](C4(C)C)[C@@]3(COC(=O)Nc3ccccc3I)C2)cc1` [compound 12, ((3aS,4R,6R,7aS)-2-((4-(tert-butyl)phenyl)sulfonyl)-5,5-dimethyloctahydro-3aH-4,6-methanoisoindol-3a-yl)methyl (2-iodophenyl)carbamate] and `CC(C)(C)c1ccc(S(=O)(=O)N2C[C@H]3C[C@H]4C[C@H](C4(C)C)[C@@]3(COC(=O)Nc3ccccc3Br)C2)cc1` [compound 13, ((3aS,4R,6R,7aS)-2-((4-(tert-butyl)phenyl)sulfonyl)-5,5-dimethyloctahydro-3aH-4,6-methanoisoindol-3a-yl)methyl (2-bromophenyl)carbamate] fall in the same range of pIC50: 6.00 to 6.70 for the first, 6.00 to 6.70 for the second.

First: C#Cc1ccc(NC(=O)OC[C@]23CN(S(=O)(=O)c4ccc(C5(C(F)(F)F)N=N5)cc4)C[C@H]2C[C@H]2C[C@@H]3C2(C)C)cc1 [compound 76, ((3aS,4R,6R,7aS)-5,5-dimethyl-2-((4-(3-(trifluoromethyl)-3H-diazirin-3-yl)phenyl)sulfonyl)octahydro-3aH-4,6-methanoisoindol-3a-yl)methyl (4-ethynylphenyl) carbamate]
Second: Cc1ccc(NC(=O)OC[C@]23CN(S(=O)(=O)c4ccc(C5(C(F)(F)F)N=N5)cc4)C[C@H]2C[C@H]2C[C@@H]3C2(C)C)cc1 [compound 35, ((3aS,4R,6R,7aS)-5,5-dimethyl-2-((4-(3-(trifluoromethyl)-3H-diazirin-3-yl)phenyl)sulfonyl)octahydro-3aH-4,6-methanoisoindol-3a-yl)methyl p-tolylcarbamate]
The pIC50 of the first is higher: over 6.70 for the first, 5.30 to 6.00 for the second.

First: Cc1ccc(NC(=O)OC[C@]23CN(S(=O)(=O)c4ccc(C(C)(C)C)cc4)C[C@H]2C[C@H]2C[C@@H]3C2(C)C)c(C)c1 [compound 7, ((3aS,4R,6R,7aS)-2-((4-(tert-butyl)phenyl)sulfonyl)-5,5-dimethyloctahydro-3aH-4,6-methanoisoindol-3a-yl)methyl (2,4-dimethylphenyl)carbamate]
Second: CC(C)(C)c1ccc(S(=O)(=O)N2C[C@H]3C[C@H]4C[C@H](C4(C)C)[C@@]3(COC(=O)Nc3cccc(Br)c3)C2)cc1 [compound 14, ((3aS,4R,6R,7aS)-2-((4-(tert-butyl)phenyl)sulfonyl)-5,5-dimethyloctahydro-3aH-4,6-methanoisoindol-3a-yl)methyl (3-bromophenyl)carbamate]
The pIC50 of the first is higher: 5.30 to 6.00 for the first, 5.00 to 5.30 for the second. The first is the more potent here.

Compared with `CC(C)(C)c1ccc(S(=O)(=O)N2C[C@H]3C[C@H]4C[C@H](C4(C)C)[C@@]3(COC(=O)Nc3ccc(C#N)cc3)C2)cc1` [compound 23, ((3aS,4R,6R,7aS)-2-((4-(tert-butyl)phenyl)sulfonyl)-5,5-dimethyloctahydro-3aH-4,6-methanoisoindol-3a-yl)methyl (4-cyanophenyl)carbamate], `CC(C)(C)c1ccc(S(=O)(=O)N2C[C@H]3C[C@H]4C[C@H](C4(C)C)[C@@]3(COC(=O)Nc3ccc(Br)cc3)C2)cc1` [compound 10, ((3aS,4R,6R,7aS)-2-((4-(tert-butyl)phenyl)sulfonyl)-5,5-dimethyloctahydro-3aH-4,6-methanoisoindol-3a-yl)methyl (4-bromophenyl)carbamate] is higher in pIC50: 5.30 to 6.00 for the first, 6.00 to 6.70 for the second. The second is the more potent here.

`CN(C)CC(C)(C)c1ccc(S(=O)(=O)N2C[C@H]3C[C@H]4C[C@H](C4(C)C)[C@@]3(COC(=O)Nc3ccc(I)cc3)C2)cc1` [compound 61, ((3aS,4R,6R,7aS)-2-((4-(1-(dimethylamino)-2-methylpropan-2-yl)phenyl)sulfonyl)-5,5-dimethyloctahydro-3aH-4,6-methanoisoindol-3a-yl)methyl (4-iodophenyl)carbamate] and `CCc1ccc(NC(=O)OC[C@]23CN(S(=O)(=O)c4ccc(C(C)(C)C)cc4)C[C@H]2C[C@H]2C[C@@H]3C2(C)C)cc1` [compound 2, ((3aS,4R,6R,7aS)-2-((4-(tert-butyl)phenyl)sulfonyl)-5,5-dimethyloctahydro-3aH-4,6-methanoisoindol-3a-yl)methyl (4-ethylphenyl)carbamate] fall in the same range of pIC50: 5.30 to 6.00 for the first, 5.30 to 6.00 for the second.

Compared with `CC(C)(C)c1ccc(S(=O)(=O)N2C[C@H]3C[C@H]4C[C@H](C4(C)C)[C@@]3(COC(=O)Nc3ccc(C#CCCO)cc3)C2)cc1` [compound 18, ((3aS,4R,6R,7aS)-2-((4-(tert-butyl)phenyl)sulfonyl)-5,5-dimethyloctahydro-3aH-4,6-methanoisoindol-3a-yl)methyl (4-(4-hydroxybut-1-yn-1-yl)phenyl)carbamate], `CC(C)(C)c1ccc(S(=O)(=O)N2C[C@H]3C[C@H]4C[C@H](C4(C)C)[C@@]3(COC(=O)Nc3ccccc3)C2)cc1` [compound 6, ((3aS,4R,6R,7aS)-2-((4-(tert-butyl)phenyl)sulfonyl)-5,5-dimethyloctahydro-3aH-4,6-methanoisoindol-3a-yl)methyl phenylcarbamate] is lower in pIC50: 5.30 to 6.00 for the first, 5.00 to 5.30 for the second. The first is the more potent here.

First: Cc1ccc(NC(=O)OC[C@]23CN(S(=O)(=O)c4ccc(OC(F)(F)F)cc4)C[C@H]2C[C@H]2C[C@@H]3C2(C)C)cc1 [compound 34, ((3aS,4R,6R,7aS)-5,5-dimethyl-2-((4-(trifluoromethoxy)phenyl)sulfonyl)octahydro-3aH-4,6-methanoisoindol-3a-yl)methyl p-tolylcarbamate]
Second: CC1(C)[C@H]2C[C@@H]3CN(S(=O)(=O)c4ccc([Si](C)(C)C)cc4)C[C@]3(COC(=O)Nc3ccc(I)cc3)[C@@H]1C2 [compound 50, ((3aS,4R,6R,7aS)-5,5-dimethyl-2-((4-(trimethylsilyl)phenyl)sulfonyl)octahydro-3aH-4,6-methanoisoindol-3a-yl)methyl (4-iodophenyl)carbamate]
The pIC50 of the first is lower: 5.30 to 6.00 for the first, 6.00 to 6.70 for the second.

Compared with `CC(C)c1ccc(S(=O)(=O)N2C[C@H]3C[C@H]4C[C@H](C4(C)C)[C@@]3(COC(=O)Nc3ccc(I)cc3)C2)cc1` [compound 43, ((3aS,4R,6R,7aS)-2-((4-isopropylphenyl)sulfonyl)-5,5-dimethyloctahydro-3aH-4,6-methanoisoindol-3a-yl)methyl (4-iodophenyl)carbamate], `CC1(C)[C@H]2C[C@@H]3CN(S(=O)(=O)c4ccc5ccccc5c4)C[C@]3(COC(=O)Nc3ccc(I)cc3)[C@@H]1C2` [compound 38, ((3aS,4R,6R,7aS)-5,5-dimethyl-2-(naphthalen-2-ylsulfonyl)octahydro-3aH-4,6-methanoisoindol-3a-yl)methyl (4-iodophenyl)carbamate] is lower in pIC50: over 6.70 for the first, 6.00 to 6.70 for the second. The first is the more potent here.
